Data on 24 molecules can be found in PubChem BioAssay (NCI).

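These data come from cells grown in 96-well plates and exposed to compound for 48 hours at five concentrations. GI50 marks 50% less growth. At the TGI there is no net growth.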 Where a SMILES comes first, the peptide text is derived from it. [ ]: non-standard residue; d: D form. The star is where a group is joined. ξ: configuration not given here. 4Abz = Nc1ccc(C(=O)O)cc1; ξL = CC(C)CC(N)C(=O)O; NHOH = ON*

Common to all, as to assay: inhibition of tumour cell growth, NCI panel, 48 h
In assay [1] the test system is SN12C renal.
In assay [2] the test system is HL-60(TB) leukemia.
Assay [3] deals with OVCAR-3 ovarian.
In assay [4] the test system is SNB-75 CNS.
Assay [5] relates to SF-268 CNS.
Assay [6] has as its system IGROV1 ovarian.
Assay [7] relates to HOP-62 NSCLC.
The test system of assay [8] is ACHN renal.
The subject of assay [9] is K-562 leukemia.
For assay [10], the system named is MALME-3M melanoma.

For the molecule `COC(=O)C(=O)C(C(=O)C(=O)Nc1ccc(Cl)cc1Cl)c1nc2ccc(Cl)cc2[nH]c1=O` (centres undefined), the TGI in assay [1], in assay [2], in assay [3], in [4], in assay [5] and in [6] was more than 100 µM in each case. The TGI in [7] and in assay [8] was more than 100 µM in each case.
For the molecule `COc1ccc(OC)c(-c2cc(-c3ccc(Cl)cc3)nn2-c2ccc(S(N)(=O)=O)cc2)c1`, the GI50 in assay [1] is 14.5 µM; in assay [2], 14.3 µM; in [3], 22.1 µM; in assay [5] it was 13.9 µM; in assay [6], 21.6 µM; in assay [9], 2.07 µM. Further, the TGI in assay [1] was 28.2 µM; in assay [2], more than 100 µM; in assay [3], 39.8 µM; in assay [5], 32.9 µM; in assay [6], more than 100 µM; in assay [9], 4.87 µM.
On to `O=C(CCCCCn1c2ccccc2c2c3c(c4c5ccccc5[nH]c4c21)C(=O)N(O)C3=O)N1CCOCC1`, for which the GI50 in assay [1] is 3.37 µM; in assay [2] it was 2.01 µM; in [10], 2.26 µM; in assay [6], 2.16 µM; in [7] it was 2.77 µM; in assay [9], 2.11 µM. Further, the TGI in [1] is more than 100 µM; in assay [2], 5.45 µM; in assay [10], 6.34 µM; in assay [6] it was 4.92 µM; in assay [7], 6.74 µM; in [9] it was 6.23 µM.
Consider `COC(=O)C1=C(O)C(C(=O)OC)[C@@]2(O)[C@@H](C(=O)OC)C(c3ccc(OC(=O)C(Cc4ccccc4)NC(C)=O)cc3)C[C@@H]1[C@@H]2C(=O)OC` (some centres undefined), for which the GI50 was 22.6 µM in assay [1]; 21.9 µM in assay [5]; 45.7 µM in assay [6]; 22.5 µM in assay [7]; 19.1 µM in assay [9]. In addition, the TGI in assay [1] is 62.1 µM; in assay [5] it was 88.3 µM; in [6], more than 100 µM; in assay [7], 54.3 µM; in assay [9] it was more than 100 µM.
With `CCCCCCCCOCC(O)COC` (centres undefined), the TGI in assay [1], in [2], in assay [10], in assay [3], in [5] and in assay [6] was more than 100 µM each time. The TGI in [7], in assay [9] and in assay [8] was more than 100 µM in each case.
On to `O=C1/C=C(/c2ccc(O)cc2)[C@H](O)Cc2ccc(OC3OC(CO)C(O)C(O)C3O)cc2O1` (some centres undefined) (tested in a mixture with another compound), for which the TGI in assay [1], in assay [2], in assay [10], in [3], in assay [5] and in assay [6] was more than 100 µM in each case. The TGI in [7] and in assay [8] was more than 100 µM throughout.
For the molecule `O=C1C=Cc2cc3ccccc3c3cccc1c23`, the GI50 in [1] is 2.71 µM; in assay [3], 3.9 µM; in [4], 11.8 µM; in assay [5], 4.55 µM; in assay [6], 8.42 µM; in assay [7], 2.12 µM. In addition, the GI50 is 5.59 µM in [9] and 2.06 µM in assay [8]. In addition, the TGI in assay [1] was 11.3 µM; in assay [3], 19 µM; in assay [4] it was 72.3 µM; in [5] it was 27 µM; in assay [6] it was more than 100 µM; in [7], 29.5 µM. Further, the TGI in [9] was more than 100 µM; in [8], 7.39 µM.
On to `N#CC1=C(N)NC(=S)NC1c1ccc(-c2ccc(-c3nc4ccccc4s3)cc2)o1` (centres undefined), for which the GI50 in [1] was more than 50 µM; in assay [2], 30.7 µM; in assay [3], more than 50 µM; in assay [5], 28.9 µM; in assay [6], 32.1 µM; in assay [7], more than 50 µM. The GI50 in [9] was 9.98 µM; in assay [8] it was 28.1 µM. The TGI in assay [1], in [2], in [3], in [5], in assay [6] and in assay [7] was more than 50 µM in each case. Further, the TGI in [9] is 22 µM; in [8], more than 50 µM.
With `COC(=O)C1=C(O)C(C(=O)OC)[C@@]2(O)[C@@H](C(=O)OC)C(c3ccccc3C(F)(F)F)C[C@@H]1[C@@H]2C(=O)OC` (some centres undefined), the GI50 was 4.33 µM in [1]; 1.69 µM in assay [3]; 0.0935 µM in assay [4]; 12.2 µM in [5]; 20.4 µM in [7]; 2.15 µM in assay [9]. Also, the GI50 in assay [8] is 1.61 µM. Moreover, the TGI in assay [1] was 15.2 µM; in assay [3], 4.14 µM; in assay [4], 1.53 µM; in assay [5], 30.3 µM; in assay [7], 36.4 µM; in [9], 9.52 µM. In addition, the TGI in assay [8] was determined as 3.05 µM.
As to `COc1cc(OC)c(Oc2cccc(OC)c2OC)c(OC)c1`, the TGI in [1], in [3], in [4], in assay [5], in [6] and in assay [7] was more than 100 µM in each case. Also, the TGI in [9] and in assay [8] was more than 100 µM each time.
`COc1ccc(-c2cc(-c3ccco3)c(C#N)c(=O)n2C2OC(OC(=O)c3ccccc3)C(OC(=O)c3ccccc3)C2OC(=O)c2ccccc2)cc1` (centres undefined): the TGI in assay [1], in [10], in assay [3], in assay [4], in [6] and in [7] was more than 100 µM in each case. The TGI in assay [9] and in assay [8] was more than 100 µM throughout.
On to `COc1ccccc1NC(=O)CC(=O)NNCC(=O)Nc1nc(-c2ccccc2)cs1`, for which the TGI in assay [1], in assay [2], in assay [3], in assay [4], in assay [5] and in [6] was more than 100 µM each time. Further, the TGI in [7] and in [9] was more than 100 µM throughout.
As to `Cc1ccc(NC(=O)C(=O)C2C(=O)C3=C(CC2(C)C)NC2C=CC=CC2S3)c(C)c1` (centres undefined), the TGI in assay [1], in assay [2], in assay [4], in assay [5], in assay [6] and in assay [8] was more than 100 µM each time.
As for `COc1cc2c(cc1OC)[C@@H]1[C@H](C2=O)c2ccc([N+](=O)[O-])cc2C(=O)N1CCCBr`, the GI50 in [1] was 0.277 µM; in assay [10], 0.367 µM; in [4], 0.611 µM; in assay [6], less than 0.01 µM; in assay [7] it was less than 0.0277 µM; in assay [9], 1.26 µM. The TGI was 0.934 µM in assay [1]; 3.09 µM in assay [10]; 0.748 µM in assay [3]; 12.5 µM in assay [4]; more than 39.4 µM in assay [5]; 1.93 µM in assay [6]. Also, the values for the TGI in assay [7] and in [9] were 0.709 µM and more than 100 µM, respectively.
For the molecule `CC(=O)OCC1OC(n2c(-c3ccc(N)cc3)cc(-c3ccco3)c(C#N)c2=O)C(OC(C)=O)C(OC(C)=O)C1OC(C)=O` (centres undefined), the TGI in [1], in assay [10], in assay [3], in [4], in assay [5] and in assay [6] was more than 50 µM each time. Further, the TGI in assay [7] and in assay [8] was more than 50 µM each time.
Consider `NC(N)=Nc1nc2cc(N)ccc2o1`, for which the TGI in assay [1], in [2], in assay [10], in assay [4], in assay [5] and in assay [7] was more than 100 µM in each case. The TGI in [9] and in assay [8] was more than 100 µM in each case.
On to `c1cc(C2O[C@H]3CCCN3[C@@H]2c2ccncc2)ccn1` (some centres undefined), for which the TGI in assay [1], in assay [10], in assay [3], in [4], in assay [5] and in assay [6] was more than 100 µM each time. Besides, the TGI in assay [7], in [9] and in [8] was more than 100 µM throughout.
With `COc1cc(OC)cc(-c2n[nH]nc2-c2ccc3c(c2)OCO3)c1`, the GI50 in assay [1] was 2.14 µM; in assay [3], 0.0745 µM; in assay [5], 2.37 µM; in assay [6], 0.432 µM; in [7], 0.336 µM; in assay [9] it was 0.0496 µM. In addition, in [8], the GI50 is 0.705 µM. Moreover, the TGI is more than 100 µM in assay [1]; 0.378 µM in [3]; more than 100 µM in assay [5]; more than 100 µM in assay [6]; more than 100 µM in [7]; more than 100 µM in assay [9]. Also, the TGI in assay [8] was more than 100 µM.
Consider `CC(=N\O)/C(C)=N/O.CC(=N\O)/C(C)=N/O.[Pd]`, for which the GI50 in assay [1] was 8.65 µM; in [2] it was 4 µM; in [10], 1.9 µM; in assay [3], 3.83 µM; in assay [5], 6.95 µM; in assay [6], 3.09 µM. In addition, the GI50 in assay [7] is 5.62 µM; in assay [9], more than 10 µM; in assay [8] it was more than 10 µM. For the same molecule, the TGI in [1] was more than 10 µM; in [2] it was more than 10 µM; in [10], 4.53 µM; in [3] it was more than 10 µM; in [5] it was more than 10 µM; in assay [6], 9.16 µM. Further, the TGI in assay [7], in [9] and in assay [8] was more than 10 µM each time.
Take `O=c1c2ccccc2oc2nccnc12`: the TGI in assay [1], in assay [10], in assay [3], in assay [4], in assay [5] and in [6] was more than 100 µM throughout. The TGI in assay [7], in [9] and in assay [8] was more than 100 µM throughout.
With `COc1cc(C=C2C(=O)OC(C)(C)OC2=O)cc(OC)c1OC`, the TGI in assay [1], in assay [2], in assay [10], in [3], in assay [5] and in [9] was more than 100 µM in each case. In addition, the TGI in [8] is more than 100 µM.
Regarding `C=C1c2c(C)nn(-c3ccccc3)c2N(C)C23C[C@@H]1C1(C)c4c(C)nn(-c5ccccc5)c4N(C)C(C)(C[C@H]12)C3` (some centres undefined), the GI50 in [1] is 9.92 µM; in assay [10] it was 4.19 µM; in [3], 4.58 µM; in assay [5], 7.52 µM; in [6], 11.9 µM; in assay [7], 7.15 µM. In [8], the GI50 was 4.78 µM. For the same molecule, the TGI in assay [1] is more than 100 µM; in assay [10], 93.5 µM; in assay [3], more than 100 µM; in [5], more than 100 µM; in assay [6], more than 100 µM; in assay [7], 25.9 µM. In assay [8], this molecule yielded a TGI of more than 100 µM.
In the case of `CC(C)CC(NC(=O)[C@@H]1CCCN1C(=O)CNC(=O)c1ccc(N)cc1)C(=O)N[C@H](C)C(=O)NO` (some centres undefined) (H-[4Abz]GP[ξL][dA]-{NHOH}), the GI50 in assay [10], in assay [3], in [4], in assay [5], in assay [6] and in assay [7] was more than 100 µM each time. Moreover, the GI50 in assay [9] and in assay [8] was more than 100 µM throughout. Also, the TGI in assay [10], in assay [3], in assay [4], in assay [5], in [6] and in assay [7] was more than 100 µM each time. The TGI in [9] and in [8] was more than 100 µM in each case.
On to `O=C1c2cc(Br)ccc2-c2c1c1ccccc1c(=O)n2CCCCl`, for which the GI50 in assay [1] is 14.1 µM; in [3], 0.964 µM; in assay [5], 41.2 µM; in [7] it was 3.34 µM; in [9] it was 34.8 µM; in assay [8], 9.19 µM. Also, the TGI is 55.9 µM in assay [1]; 7.91 µM in [3]; more than 100 µM in [5]; 17.8 µM in assay [7]; more than 100 µM in [9]; 30.8 µM in assay [8].
